Calls of active or inactive are those of the source. No cut-off for these calls is given here. A value given as a limit tells only on which side of the number the result lay.

Assay [1] concerns Lipid bilayer. The assay is described as follows: Vesicular anionophoric activity in large unilamellar vesicle membrane derived from egg-yolk L-alpha-phosphatidylcholine assessed as induction of relative efflux of chloride ions in presence of rubidium (Rb+) measured up to 300 seconds by using chloride-selective electrode. The settings on record: time <= 300.0 sec.
Assay [2] concerns HepG2. The assay is described as follows: Antiproliferative activity against human HepG2 cells by MTT assay. The assay is classed as functional, cell-based. (In general: Formazan colour is commonly taken as a measure of viable cells.)
Assay [3] has as its system MCF7. Briefly: Antiproliferative activity against human MCF7 cells by MTT assay. The assay is classed as functional, cell-based.
The test system of assay [4] is Lipid bilayer. Briefly: Vesicular anionophoric activity in large unilamellar vesicle membrane derived from egg-yolk L-alpha-phosphatidylcholine assessed as induction of relative efflux of chloride ions in presence of lithium (Li+) measured up to 300 seconds by using chloride-selective electrode. The settings on record: time <= 300.0 sec.
The subject of assay [5] is A2780. Briefly: Antiproliferative activity against human A2780 cells by MTT assay. The assay is classed as functional, cell-based.
Assay [6] deals with HCT-8. Briefly: Antiproliferative activity against human HCT-8 cells by MTT assay. The assay is classed as functional, cell-based.
Assay [7] concerns HT-29. Briefly: Antiproliferative activity against human HT-29 cells by MTT assay. The assay is classed as functional, cell-based.
In assay [8] the test system is Lipid bilayer. The assay is described as follows: Vesicular anionophoric activity in Bulky nitrobenzene membrane assessed as induction of relative efflux of chloride ions measured up to 100 hrs by using chloride-selective electrode.
In assay [9] the test system is Lipid bilayer. The assay is described as follows: Vesicular anionophoric activity in large unilamellar vesicle membrane derived from egg-yolk L-alpha-phosphatidylcholine assessed as induction of relative efflux of chloride ions in presence of potassium (K+) measured up to 300 seconds by using chloride-selective electrode. Conditions: time <= 300.0 sec.
Assay [10] relates to Lipid bilayer. The assay is described as follows: Vesicular anionophoric activity in large unilamellar vesicle membrane derived from egg-yolk L-alpha-phosphatidylcholine assessed as induction of relative efflux of chloride ions in presence of cesium (Cs+) measured up to 300 seconds by using chloride-selective electrode. The settings on record: time <= 300.0 sec.
The test system of assay [11] is Lipid bilayer. The assay is described as follows: Vesicular anionophoric activity in large unilamellar vesicle membrane derived from egg-yolk L-alpha-phosphatidylcholine assessed as induction of relative efflux of chloride ions measured up to 300 seconds by using chloride-selective electrode.
In assay [12] the test system is Lipid bilayer. Briefly: Vesicular anionophoric activity in large unilamellar vesicle membrane derived from egg-yolk L-alpha-phosphatidylcholine assessed as induction of relative efflux of chloride ions in presence of sodium (Na+) measured up to 300 seconds by using chloride-selective electrode. Conditions: time <= 300.0 sec.

As for `Cc1ccc(Nc2c(NCCCCCC(=O)Nc3ccc(S(N)(=O)=O)cc3)c(=O)c2=O)cc1`, the outcome in assay [1], in [4], in assay [9], in assay [10] and in assay [12] was Active. In addition, the IC50 in assay [2] is 36.7 µM; in [3] it was 33 µM; in [5], above 50 µM; in assay [6], 32.2 µM; in assay [7], 47.4 µM. For the same molecule, the Activity result in [8] is reported as “Active; Compound Exhibit Anion Transport Activity Most Probably Through Carrier Mechanism”. Besides, in assay [11], the EC50 is recorded as above 10 mol%.

In the case of `NS(=O)(=O)c1ccc(NC(=O)CCCCCNc2c(Nc3cc(Cl)cc(Cl)c3)c(=O)c2=O)cc1`, the result in assay [1], in [4], in [9], in assay [10] and in assay [12] was Active. Further, the half-inhibitory concentration (IC50) is 20.6 µM in assay [2]; above 50 µM in assay [3]; above 50 µM in assay [5]; 39.1 µM in [6]; 40.9 µM in [7]. Besides, the Activity entry in assay [8] is “Active; Compound Exhibit Anion Transport Activity Most Probably Through Carrier Mechanism”. For the same molecule, the EC50 in assay [11] is given as 3.44 mol%.

Turning to `NS(=O)(=O)c1ccc(NC(=O)CCCCCNc2c(Nc3ccc(C(F)(F)F)cc3)c(=O)c2=O)cc1`, the result in assay [1], in [4], in assay [9], in assay [10] and in assay [12] was Active. Moreover, the IC50 in assay [2] is 27.1 µM; in [3], above 50 µM; in [5], 21.1 µM; in [6] it was 19.2 µM; in assay [7], 24.7 µM. The Activity result in assay [8] is “Active; Compound Exhibit Anion Transport Activity Most Probably Through Carrier Mechanism”. For the same molecule, the EC50 in assay [11] came out at 2.93 mol%.

For `NS(=O)(=O)c1ccc(NC(=O)CCCCCNc2c(Nc3ccc([N+](=O)[O-])cc3)c(=O)c2=O)cc1`, the outcome in [1], in assay [4], in assay [9], in assay [10] and in [12] was Active. Besides, the half-inhibitory concentration (IC50) in [2], in [3], in assay [5], in assay [6] and in [7] was above 50 µM in each case. In [8], the Activity entry was “Active; Compound Exhibit Anion Transport Activity Most Probably Through Carrier Mechanism”. Also, in [11], the EC50 worked out at 2.86 mol%.

As to `NS(=O)(=O)c1ccc(NC(=O)CCCCCNc2c(Nc3cc([N+](=O)[O-])cc([N+](=O)[O-])c3)c(=O)c2=O)cc1`, the result in assay [1], in [4], in assay [9], in assay [10] and in [12] was Active. Further, the IC50 in assay [2], in assay [3], in assay [5], in [6] and in [7] was above 50 µM in each case. Further, the Activity entry in assay [8] is reported as “Active; Compound Exhibit Anion Transport Activity Most Probably Through Carrier Mechanism”. For the same molecule, in assay [11], the EC50 was 3.08 mol%.

With `NS(=O)(=O)c1ccc(NC(=O)CCCCCNc2c(Nc3ccc(Cl)cc3)c(=O)c2=O)cc1`, the result in assay [1], in [4], in assay [9], in assay [10] and in [12] was Active. For the same molecule, the IC50 in [2] was 31.9 µM; in assay [3], 23.6 µM; in assay [5], above 50 µM; in assay [6], 25.6 µM; in assay [7], 33.8 µM. The Activity entry in assay [8] is “Active; Compound Exhibit Anion Transport Activity Most Probably Through Carrier Mechanism”. The EC50 in [11] stood at 5.78 mol%.

As usually defined, the IC50 is the concentration that inhibits the measured activity by half. Low values mean greater potency, high ones weaker potency.

Values taken from ChEMBL document CHEMBL6177955, “Design, synthesis and biological evaluation of Golgi-targeting anion transporters as inducers of Golgiphagy and apoptosis in cancer cells” (Eur J Med Chem, 2025).
